Test results taken from US10172883B2, “Methods and compositions for treating and/or inhibiting toxins using copper-containing compounds” (ALATALAB SOLUTIONS, LLC, priority 2014, dated 2019).

Assays:
[1] = test system: fire ant venom (Solenopsis invicta) induced hemolysis of human red blood cells (RBCs); format: cell-based
[2] = test system: box jellyfish venom (Alatina alata) induced hemolysis of human RBCs; assay: Inhibition of box jellyfish venom induced hemolysis of human RBCs; format: cell-based; conditions: for concentration at which active for box jellyfish venom inhibition: 5 units/mL/% RBC box jellyfish venom, 1 hour, 37° C., active at this concentration or greater
[3] = test system: cnidarian sting blistering inflammation; assay: Live jelly sting test, blistering inflammation; format: in vivo
[4] = test system: fire ant venom-induced hemolysis of RBCs; assay: Live time microscopic imaging of fire ant venom-induced hemolysis of RBCs; format: cell-based, human; conditions: 10 ng/μL fire ant venom, 1 μM copper gluconate, single dose
[5] = test system: live Alatina alata tentacles on human RBC agar; assay: RBC agar slide hemolysis by live Alatina alata tentacles; format: cell-based; conditions: 10 μM in agar slide, 2% fresh human RBC, 37° C., one hour
Description: 2-20 mm sections of fresh live Alatina alata tentacles were placed on top of freshly prepared RBC agar slide (3% NuSieve GTG low melting agarose, 150 mM NaCl with 2% fresh human RBC). Slides were incubated at 37° C. for one hour. Zones of hemolysis are observed in control slide (FIG. 5, left) but not in slides prepared with 10 μM Copper Gluconate (3% NuSieve GTG low melting agarose, 150 mM NaCl, 10 μM Copper Gluconate with 2% fresh human RBC) (FIG. 5, right). A zone of hemolysis indicates lysis of the red blood cells.

[6] = test system: hemolytic toxins; conditions: 10 mM d-lactulose; cited from earlier work

zinc gluconate
concentration at which active for fire ant venom inhibition [1]: approximately 25 mM
effect on hemolysis at early time points [1]: potently stimulated hemolysis
concentration at which active for box jellyfish venom inhibition [2]: approximately 300 μM

O=C(Nc1ccc(Cl)cc1)Nc1ccc(Cl)c(Cl)c1 [TCC, triclocarban]
resolution of blistering inflammation ([3]; 1% TCC in vanacreme, topical, untreated test lasted up to 72 hr): fully resolving the blistering inflammation
time to resolve blistering inflammation ([3]; after application of a live jelly in a sting test): ≤ 90 min

copper gluconate
slowing of hemolysis [4]: 6 fold
concentration at which active for fire ant venom inhibition [1]: approximately 3 μM
efficacy relative to zinc gluconate in the inhibition of ant venom [1]: approximately 10,000 times
zones of hemolysis observed [5]: not
potency relative to zinc gluconate alone in inhibiting box jellyfish venom [2]: approximately 10 times
concentration at which active for box jellyfish venom inhibition [2]: approximately 30 μM

OC[C@H]1O[C@@H](O[C@@H]2[C@@H](CO)O[C@](O)(CO)[C@H]2O)[C@H](O)[C@@H](O)[C@H]1O [d-lactulose]
hemolysis [6]: dramatic absence of hemolysis
